Legend:
[1] = system: ER membrane ATP transport; assay: ATP transport into intact ER vesicles; assay type: biochemical, Chinese Hamster; conditions: vesicles from control and ceramide-treated cells, 5 and 10 μM solute
From the text: (§1) Intact vesicles from the endoplasmic reticulum (ER) and the Golgi apparatus were purified on a 10-34% Iodixanol (OptiPrep; Axis-Shield, Norway) continuous gradient as described (Puglielli et al., 2001, Nat. Cell Biol. 3: 905-912). The complete migration of subcellular markers in a typical gradient is shown in Costantini et al., 2006, EMBO J. 25: 1997-2006; Puglielli et al., 2001, Nat. Cell Biol. 3: 905-912. Fractions enriched in ER and Golgi markers (also called ER or Golgi vesicles herein) were separated, pooled together, and resuspended in isotonic/cryogenic buffer (0.25 M sucrose and 10 mM Tris-HCl, pH 7.4) in the presence of protease inhibitors (Roche). Latency of ER and Golgi vesicles was determined with the glucose-6-phosphatase (Clairmont et al., 1992, J. Biol. Chem. 267: 3983-3900) and the sialyl-transferase (Puglielli and Hirschberg, 1999, J. Biol. Chem. 274: 35596-35600) methods, respectively. The purity of the preparation was further confirmed by assaying the above enzymatic activities, together with transport of CMP-sialic acid. […]
Briefly, assays were performed in 100 μl final volume (isotonic/cryogenic buffer) using 25 to 50 μg of ER/Golgi vesicles protein. […] Pellets were then dissolved in 0.6 mL of NaOH 1 N; after neutralization with 0.2 mL of 4N HCl, samples were counted by scintillation spectrometry. […]

[2] = system: lysine deacetylase activity in Golgi vesicles; assay: Membrane deacetylase activity, in vitro deacetylation of acetylated BACE1-myc by Golgi vesicles; assay type: biochemical, Chinese Hamster; conditions: vesicles from ceramide-treated cells, 0.2% Triton X-100, 30° C.
From the text: as §1, with “respectively.” for “respectively. The purity of the preparation was further confirmed by assaying the above enzymatic activities, together with transport of CMP-sialic acid.”
BACE1 was eluted by lowering the pH to 2.0 and recovered by centrifuging at 3000 rpm for 2 min. […] BACE1 was then immunoprecipitated and counted on a liquid scintillation counter. […]
FIG. 6 illustrates how acetyltransferase and deacetylase activities exist in the lumen of ER and Golgi apparatus, respectively. […] The reaction was stopped by lowering the temperature; BACE1 was then purified again and analyzed on a scintillation liquid counter. […]

- in vitro deacetylation of BACE1 by Golgi vesicles [2]: increased deacetylation
Compound: CCCCCCCCCCCCC/C=C/[C@@H](O)[C@H](CO)NC(=O)CCCCC [ceramide, C6-ceramide]
- ATP transport into ER vesicles [1]: no apparent difference
